Values of other authors, collected in patent US20140088140A1 (TEVA PHARMACEUTICAL INDUSTRIES, LTD., priority 2012, published 2014).

What was measured:
[1] = test system: Huntington's disease patients; settings: 45 mg or 90 mg daily for 6 months
[2] = in vivo
Th1 / Th2 T helper cells = settings: animal studies
[3] = test system: genes related to antigen presentation and corresponding inflammatory pathways; settings: mainly via the NFkB pathway
Multiple Sclerosis = settings: two phase III trials

Compound	tertiary endpoint UHDRS-TMS (changes in motor function) and individual mMS items (gait, dysarthria) [1]	symptomatic relief incl. hand movements, gait and balance (patients with HD)	oral bioavailability [2]	Th1 to Th2 shift (Th1 / Th2 T helper cells)	expression of genes related to antigen presentation and inflammatory pathways [3]	safety and tolerability profile (Multiple Sclerosis)
CCCN1CCC(c2cccc(S(C)(=O)=O)c2)CC1 [pridopidine, 4-[3-(methylsulfonyl)phenyl]-1-propyl-piperidine]	statistically significant effect of treatment	significant symptomatic relief				
CCN(C(=O)c1c(O)c2c(Cl)cccc2n(C)c1=O)c1ccccc1 [laquinimod]			high oral bioavailability	shift with an anti-inflammatory profile	induced suppression	favorable safety and tolerability profile
